Measurements as given in US9663464B2, “Carbazole derivatives acting on 5-HT7 receptor” (KOREA INSTITUTE OF SCIENCE AND TECHNOLOGY, priority 2015, dated 2017).
pKi: −log10 of the molar value. Counter-ions that a name gives are not always drawn.

Assays:
5-HT2C = molecular target: T1, 5-HT2C (Homo sapiens, UniProt P28335); test: 5-HT2C receptor inhibition/binding (Tables 1-3)
T1 sequence (P28335 33-458): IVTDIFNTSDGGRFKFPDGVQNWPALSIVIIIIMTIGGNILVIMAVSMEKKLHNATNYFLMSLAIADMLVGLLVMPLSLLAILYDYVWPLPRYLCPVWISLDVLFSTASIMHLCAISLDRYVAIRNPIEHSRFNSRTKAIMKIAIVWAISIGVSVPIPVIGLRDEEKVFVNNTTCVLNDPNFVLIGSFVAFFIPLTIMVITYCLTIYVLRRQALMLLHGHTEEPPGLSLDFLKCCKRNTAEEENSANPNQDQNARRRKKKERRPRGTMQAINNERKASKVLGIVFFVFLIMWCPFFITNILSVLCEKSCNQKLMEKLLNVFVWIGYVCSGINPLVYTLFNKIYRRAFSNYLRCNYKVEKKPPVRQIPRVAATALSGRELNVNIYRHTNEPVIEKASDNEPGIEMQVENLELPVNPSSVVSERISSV

5-HT6 = 5-HT6 (Homo sapiens, UniProt P50406); test: 5-HT6 receptor inhibition/binding (Tables 2-3)
5-HT1A = molecular target: T2, 5-HT1A (Homo sapiens, UniProt P08908); test: 5-HT1A receptor inhibition (Table 3); assay type: binding
T2 sequence (P08908 1-422): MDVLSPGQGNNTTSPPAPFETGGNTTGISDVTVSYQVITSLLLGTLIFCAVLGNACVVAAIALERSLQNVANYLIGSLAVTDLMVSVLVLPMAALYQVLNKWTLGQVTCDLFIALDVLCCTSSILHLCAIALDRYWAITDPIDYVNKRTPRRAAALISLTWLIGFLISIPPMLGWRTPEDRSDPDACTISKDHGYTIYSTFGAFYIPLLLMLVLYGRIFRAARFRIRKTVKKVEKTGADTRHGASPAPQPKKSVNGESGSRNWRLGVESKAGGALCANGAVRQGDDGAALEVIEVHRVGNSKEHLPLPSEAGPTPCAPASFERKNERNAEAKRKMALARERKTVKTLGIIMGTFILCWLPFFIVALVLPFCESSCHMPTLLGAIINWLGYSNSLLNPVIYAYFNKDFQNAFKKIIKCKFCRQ

[1] = molecular target: T3, human gene recombinant 5-HT7 receptor expressed in CHO cells (Homo sapiens, UniProt P34969); test: Binding affinity for the 5-HT7 serotonin receptor ([3H]LSD radioligand)
T3 construct: expressed in transfected cells; host or cells: CHO cells (membrane preparation)
Experimental: In this example, the human gene recombinant 5-HT7 receptor expressed in CHO cells was used. 1 nM [^3H]LSD, 5-HT7 receptor membrane (15 μg/well), a test drug, 10 mM MgCl2, 50 mM Tris-HCl buffer (pH 7.4) containing 0.1 mM EDTA, etc. were added to a vessel until the final volume reached 0.25 ml. The test drug was used at various concentrations. The mixture was cultured at 25° C. for 90 min. The culture was rapidly filtered through a Whatman GF/C glass fiber filter, which had been previously wetted with 0.3% polyethyleneimine using a Brandel harvester, to quench the reaction. The reaction mixture was washed with cold 50 mM Tris-HCl buffer. The filter was covered with MeltiLex, sealed in a sample bag, and dried in an oven. Counting was performed using MicroBeta (Wallac) and nonspecific binding was measured in the presence of […]. The K value of the test drug was obtained from nonlinear regression analysis (GraphPad Prism Program, San Diego, USA) of isotherms obtained by repeatedly performing the experiment on the drug at 10-11 stage concentrations in two test tubes (each twice).
The % inhibition values of the inventive compounds having different Y structures at a concentration of 10 μM against the 5-HT7 serotonin receptor were measured. Further, the binding affinity (Ki) values of the inventive compounds having different Y structures at a concentration of 10 μM for the 5-HT7 serotonin receptor were measured.

T3 sequence (P34969 whole entry): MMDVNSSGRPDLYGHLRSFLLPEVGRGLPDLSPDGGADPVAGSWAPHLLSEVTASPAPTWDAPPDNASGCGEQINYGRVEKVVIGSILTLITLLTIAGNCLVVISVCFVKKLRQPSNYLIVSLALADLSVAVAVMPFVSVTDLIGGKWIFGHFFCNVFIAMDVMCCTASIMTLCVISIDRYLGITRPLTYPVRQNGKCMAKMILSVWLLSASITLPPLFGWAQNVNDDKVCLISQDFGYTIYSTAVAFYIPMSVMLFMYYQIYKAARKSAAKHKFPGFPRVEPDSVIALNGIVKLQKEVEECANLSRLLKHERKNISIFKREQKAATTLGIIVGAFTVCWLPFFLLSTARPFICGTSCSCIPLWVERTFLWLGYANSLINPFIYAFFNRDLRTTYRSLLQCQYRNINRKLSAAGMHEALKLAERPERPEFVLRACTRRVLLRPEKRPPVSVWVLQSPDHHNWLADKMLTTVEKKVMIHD
Sequence of 5-HT6 (P50406 whole entry, species assumed): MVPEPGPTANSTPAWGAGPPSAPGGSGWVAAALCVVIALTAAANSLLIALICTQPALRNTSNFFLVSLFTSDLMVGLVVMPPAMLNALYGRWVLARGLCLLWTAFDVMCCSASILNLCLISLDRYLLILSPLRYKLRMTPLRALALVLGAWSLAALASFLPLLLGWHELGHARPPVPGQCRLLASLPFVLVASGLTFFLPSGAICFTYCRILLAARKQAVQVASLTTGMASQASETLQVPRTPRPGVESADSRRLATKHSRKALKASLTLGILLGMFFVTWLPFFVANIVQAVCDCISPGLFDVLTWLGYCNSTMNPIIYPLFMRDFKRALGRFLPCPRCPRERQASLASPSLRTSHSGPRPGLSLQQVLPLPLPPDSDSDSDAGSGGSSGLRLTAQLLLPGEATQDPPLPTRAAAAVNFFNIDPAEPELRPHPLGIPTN

For `CC(=O)N1CCN(CCCCCC(=O)n2c3ccccc3c3ccccc32)CC1` [Example 2.11, 6-(4-Acetylpiperazin-1-yl)-1-(9H-carbazol-9-yl)hexan-1-one hydrochloride], the inhibition at 10 µM (5-HT2C) was 51.3%, the inhibition at 10 µM (5-HT6) was 24.5% and the inhibition at 10 µM (5-HT1A) was 51.8%. It also gave a pKi [1] of 5.63 and an inhibition at 10 µM [1] of 72.1%.

In the case of `O=C(CCCCN1CCC(c2ccccc2)CC1)n1c2ccccc2c2ccccc21` [Example 2.25, 1-(9H-carbazol-9-yl)-5-(4-phenylpiperidin-1-yl)pentan-1-one hydrochloride], the pKi (5-HT2C) was 6.04, the inhibition at 10 µM (5-HT2C) was 53.2% and the pKi (5-HT6) was 5.83. It also gave an inhibition at 10 µM (5-HT6) of 67%, a pKi [1] of 6.82 and an inhibition at 10 µM [1] of 96%.

For `O=C(CCCCN1CCC(Cc2ccccc2)CC1)n1c2ccccc2c2ccccc21` [Example 2.26, 5-(4-Benzylpiperidin-1-yl)-1-(9H-carbazol-9-yl)pentan-1-one hydrochloride], the inhibition at 10 µM (5-HT2C) was 43.1%, the pKi (5-HT6) was 6.52 and the inhibition at 10 µM (5-HT6) was 93.4%. The pKi [1] was 6.51 and the inhibition at 10 µM [1] was 97.4%.

For `CN1CCN(CCCCC(=O)n2c3ccccc3c3ccccc32)CC1` [Example 2.28, 1-(9H-carbazol-9-yl)-5-(4-methylpiperazin-1-yl)pentan-1-one hydrochloride], the inhibition at 10 µM (5-HT6) was 78.4%, the inhibition at 10 µM (5-HT1A) was 15.9% and the inhibition at 10 µM [1] was 40.4%.

`O=C(CCCCN1CCN(c2ccccc2O)CC1)n1c2ccccc2c2ccccc21` [Example 2.30, 1-(9H-carbazol-9-yl)-5-(4-(2-hydroxyphenyl)piperazin-1-yl)pentan-1-one hydrochloride] was tested, and the inhibition at 10 µM (5-HT6) was 62.6%, the inhibition at 10 µM (5-HT1A) was 102% and the pKi [1] was 7.07. It also gave an inhibition at 10 µM [1] of 98.7%.

`O=C(CCCN1CCN(Cc2ccccc2)CC1)n1c2ccccc2c2ccccc21` [Example 2.32, 4-(4-Benzylpiperazin-1-yl)-1-(9H-carbazol-9-yl)butan-1-one hydrochloride] showed an inhibition at 10 µM (5-HT6) of 14.7%, an inhibition at 10 µM (5-HT1A) of 69.4% and a pKi [1] of 6.39. The inhibition at 10 µM [1] was 90.8%.

`O=C(CCCN1CCN(c2ccccc2O)CC1)n1c2ccccc2c2ccccc21` [Example 2.33, 1-(9H-carbazol-9-yl)-4-(4-(2-hydroxyphenyl)piperazin-1-yl)butan-1-one] was tested, and the inhibition at 10 µM (5-HT6) was 16.1%, the inhibition at 10 µM (5-HT1A) was 101% and the pKi [1] was 7.30. The inhibition at 10 µM [1] was 97%.

Molecule `c1ccc(C2CCN(CCCCCCn3c4ccccc4c4ccccc43)CC2)cc1` [Example 2.43, 9-(6-(4-Phenylpiperidin-1-yl)hexyl)-9H-carbazole] has a pKi (5-HT6) of 6.77, an inhibition at 10 µM (5-HT6) of 94.9% and a pKi [1] of 6.67. It also gave an inhibition at 10 µM [1] of 89.9%.

For `c1ccc(CC2CCN(CCCCCCn3c4ccccc4c4ccccc43)CC2)cc1` [Example 2.44, 9-(6-(4-Benzylpiperidin-1-yl)hexyl)-9H-carbazole], the pKi (5-HT6) was 6.85, the inhibition at 10 µM (5-HT6) was 97.8% and the pKi [1] was 6.63. The inhibition at 10 µM [1] was 86.8%.

In the case of `CC(=O)N1CCN(CCCCCCn2c3ccccc3c3ccccc32)CC1` [Example 2.45, 1-(4-(6-(9H-carbazol-9-yl)hexyl)piperazin-1-yl)ethanone], the inhibition at 10 µM (5-HT6) was 35%, the inhibition at 10 µM (5-HT1A) was 6.2% and the pKi [1] was 5.83. It also gave an inhibition at 10 µM [1] of 63.1%.

Work on `CN1CCN(CCCCCCn2c3ccccc3c3ccccc32)CC1` [Example 2.46, 9-(6-(4-Methylpiperazin-1-yl)hexyl)-9H-carbazole] yielded an inhibition at 10 µM (5-HT6) of 82.2%, an inhibition at 10 µM (5-HT1A) of 19.3% and an inhibition at 10 µM [1] of 49.4%.

With `c1ccc(CN2CCN(CCCCCCn3c4ccccc4c4ccccc43)CC2)cc1` [Example 2.47, 9-(6-(4-Benzylpiperazin-1-yl)hexyl)-9H-carbazole] the inhibition at 10 µM (5-HT6) was 77.5%, the inhibition at 10 µM (5-HT1A) was 62% and the pKi [1] was 6.22. For the same molecule, the inhibition at 10 µM [1] was 86%.

`Oc1ccccc1N1CCN(CCCCCCn2c3ccccc3c3ccccc32)CC1` [Example 2.48, 2-(4-(6-(9H-carbazol-9-yl)hexyl)piperazin-1-yl)phenol] showed an inhibition at 10 µM (5-HT6) of 96.9%, an inhibition at 10 µM (5-HT1A) of 105% and a pKi [1] of 7.05. The inhibition at 10 µM [1] was 90.5%.

Work on `COc1ccccc1N1CCN(CCCCCCn2c3ccccc3c3ccccc32)CC1` [Example 2.49, 9-(6-(4-(2-Methoxyphenyl)piperazin-1-yl)hexyl)-9H-carbazole] yielded an inhibition at 10 µM (5-HT6) of 85.1%, an inhibition at 10 µM (5-HT1A) of 105% and a pKi [1] of 6.84. It also gave an inhibition at 10 µM [1] of 85.7%.

Molecule `c1ccc(C2CCN(CCCCCn3c4ccccc4c4ccccc43)CC2)cc1` [Example 2.50, 9-(5-(4-Phenylpiperidin-1-yl)pentyl)-9H-carbazole] has a pKi (5-HT6) of 6.91, an inhibition at 10 µM (5-HT6) of 96.1% and a pKi [1] of 6.75. It also gave an inhibition at 10 µM [1] of 94.1%.

Work on `c1ccc(CN2CCN(CCCCCn3c4ccccc4c4ccccc43)CC2)cc1` [Example 2.51, 9-(5-(4-Benzylpiperazin-1-yl)pentyl)-9H-carbazole] yielded an inhibition at 10 µM (5-HT6) of 65.1%, an inhibition at 10 µM (5-HT1A) of 74.9% and a pKi [1] of 6.63. The inhibition at 10 µM [1] was 86.8%.

`Oc1ccccc1N1CCN(CCCCCn2c3ccccc3c3ccccc32)CC1` [Example 2.52, 2-(4-(5-(9H-carbazol-9-yl)pentyl)piperazin-1-yl)phenol] was tested, and the inhibition at 10 µM (5-HT6) was 95.5%, the inhibition at 10 µM (5-HT1A) was 103% and the pKi [1] was 7.51. The inhibition at 10 µM [1] was 94.4%.

In the case of `COc1ccccc1N1CCN(CCCCCn2c3ccccc3c3ccccc32)CC1` [Example 2.53, 9-(5-(4-(2-Methoxyphenyl)piperazin-1-yl)pentyl)-9H-carbazole], the inhibition at 10 µM (5-HT6) was 75.5%, the inhibition at 10 µM (5-HT1A) was 101% and the pKi [1] was 7.19. For the same molecule, the inhibition at 10 µM [1] was 91.5%.

With `c1ccc(C2CCN(CCCCn3c4ccccc4c4ccccc43)CC2)cc1` [Example 2.54, 9-(4-(4-Phenylpiperidin-1-yl)butyl)-9H-carbazole] the pKi (5-HT6) was 5.84, the inhibition at 10 µM (5-HT6) was 55.5% and the pKi [1] was 6.69. For the same molecule, the inhibition at 10 µM [1] was 94.4%.

`COc1ccccc1N1CCN(CCCCn2c3ccccc3c3ccccc32)CC1` [Example 2.56, 9-(4-(4-(2-Methoxyphenyl)piperazin-1-yl)butyl)-9H-carbazole] was tested, and the inhibition at 10 µM (5-HT6) was 56.3%, the inhibition at 10 µM (5-HT1A) was 104% and the pKi [1] was 7.19. It also gave an inhibition at 10 µM [1] of 92.5%.

Work on `c1ccc(C2CCN(CCCn3c4ccccc4c4ccccc43)CC2)cc1` [Example 2.57, 9-(3-(4-Phenylpiperidin-1-yl)propyl)-9H-carbazole] yielded an inhibition at 10 µM (5-HT6) of 32.9%, a pKi [1] of 6.45 and an inhibition at 10 µM [1] of 91.1%.

For `c1ccc(CN2CCN(CCCn3c4ccccc4c4ccccc43)CC2)cc1` [Example 2.58, 9-(3-(4-Benzylpiperazin-1-yl)propyl)-9H-carbazole], the inhibition at 10 µM (5-HT6) was 15.1%, the inhibition at 10 µM (5-HT1A) was 64.9% and the pKi [1] was 6.39. It also gave an inhibition at 10 µM [1] of 88.7%.

`Oc1ccccc1N1CCN(CCCn2c3ccccc3c3ccccc32)CC1` [Example 2.59, 2-(4-(3-(9H-carbazol-9-yl)propyl)piperazin-1-yl)phenol] gave an inhibition at 10 µM (5-HT6) of 21.7%, an inhibition at 10 µM (5-HT1A) of 105% and a pKi [1] of 7.02. The inhibition at 10 µM [1] was 94.7%.

In the case of `COc1ccccc1N1CCN(CCCn2c3ccccc3c3ccccc32)CC1` [Example 2.60, 9-(3-(4-(2-Methoxyphenyl)piperazin-1-yl)propyl)-9H-carbazole], the inhibition at 10 µM (5-HT6) was 12.2%, the inhibition at 10 µM (5-HT1A) was 103% and the pKi [1] was 6.81. It also gave an inhibition at 10 µM [1] of 90.7%.
